Experimental data published in the NIST ThermoML archive (doi:10.1016/j.tca.2014.07.002).
Numbers after ± are expanded uncertainties.

Assay: xn = mol fraction of the nth substance listed
Conditions: 101 kPa, Liquid, x1 = 0.423; for mass density: Buoyancy - hydrostatic balance

O=C([O-])[O-].[Na+].[Na+] [sodium carbonate] + [Cl-].[Na+]
Conditions | mass density [kg/m3] | viscosity [mPa·s]
973 K | 1830 ± 40 | 17.02 ± 0.4
1023 K | 1810 ± 40 | 9.285 ± 0.23
1073 K | 1800 ± 40 | 5.31 ± 0.14
1123 K | 1760 ± 40 | 2.468 ± 0.079
1173 K | 1730 ± 40 | 1.219 ± 0.051
1223 K | 1720 ± 30 | –
1273 K | 1680 ± 30 | –
